US11339130B1 (Blade Therapeutics, Inc., priority 2016, dated 2022)

Experiments:
[1] = test system: Calpain activity in SH-SY5Y cells; assay: SH-SY5Y + AMC fluorescence assay (Suc-LLVY-AMC substrate); type: cell-based; conditions: read-out: SH-SY5Y + AMC IC50
Human Calpain 9/NS1 = molecular target: T1, Human Calpain 9/NS1 (Homo sapiens, UniProt O14815); assay: Calpain inhibition continuous fluorescence (FRET) assay, Human Calpain 9/NS1; type: biochemical; conditions: read-out: Human Calpain 9/NS1 IC50
T1 sequence (O14815 1-690): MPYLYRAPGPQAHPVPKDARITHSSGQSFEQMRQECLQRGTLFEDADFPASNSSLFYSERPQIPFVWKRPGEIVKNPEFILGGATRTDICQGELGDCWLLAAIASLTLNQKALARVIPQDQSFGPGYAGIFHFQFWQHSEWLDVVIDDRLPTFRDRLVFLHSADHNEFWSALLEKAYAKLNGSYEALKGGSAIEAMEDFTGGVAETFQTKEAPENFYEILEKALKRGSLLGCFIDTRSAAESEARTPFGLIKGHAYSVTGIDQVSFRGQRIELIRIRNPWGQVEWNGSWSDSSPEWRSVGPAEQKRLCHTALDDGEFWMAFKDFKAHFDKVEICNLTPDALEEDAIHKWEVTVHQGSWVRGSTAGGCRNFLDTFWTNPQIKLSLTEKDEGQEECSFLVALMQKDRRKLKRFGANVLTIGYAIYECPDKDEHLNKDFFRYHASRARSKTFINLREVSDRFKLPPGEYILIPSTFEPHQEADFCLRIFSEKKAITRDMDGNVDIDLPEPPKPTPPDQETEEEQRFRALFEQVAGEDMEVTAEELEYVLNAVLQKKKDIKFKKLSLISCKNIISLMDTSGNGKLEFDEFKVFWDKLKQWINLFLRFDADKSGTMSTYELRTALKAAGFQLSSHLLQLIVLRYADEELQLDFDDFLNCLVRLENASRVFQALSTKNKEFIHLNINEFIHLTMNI
T1 sequence (P04632 1-268 partner): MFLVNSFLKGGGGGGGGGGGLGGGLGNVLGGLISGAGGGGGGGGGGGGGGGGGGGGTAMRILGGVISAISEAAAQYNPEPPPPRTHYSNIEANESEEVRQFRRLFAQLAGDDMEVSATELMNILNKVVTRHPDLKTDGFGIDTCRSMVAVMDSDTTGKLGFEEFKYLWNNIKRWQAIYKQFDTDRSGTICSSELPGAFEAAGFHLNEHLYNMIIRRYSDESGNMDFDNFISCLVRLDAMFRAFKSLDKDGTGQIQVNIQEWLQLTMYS
Method in brief: (§1)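 Human calpains 1, 2 and 9 preincubated with inhibitor at 25 °C in 50 mM Tris pH 7.5, 100 mM NaCl, 1 mM DTT; reaction started with 5-FAM/QXL 520 FRET peptide plus CaCl2 for activation. Fluorescence (490/520 nm) followed 10 min; rates from 1-5 min slopes fitted to 4-parameter logistic for IC50.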

Human Calpain 1/NS1 = molecular target: T2, Human Calpain 1/NS1 (Homo sapiens, UniProt P07384); assay: Calpain inhibition continuous fluorescence (FRET) assay, Human Calpain 1/NS1; type: biochemical; conditions: read-out: Human Calpain 1/NS1 IC50
T2 sequence (P07384 1-714): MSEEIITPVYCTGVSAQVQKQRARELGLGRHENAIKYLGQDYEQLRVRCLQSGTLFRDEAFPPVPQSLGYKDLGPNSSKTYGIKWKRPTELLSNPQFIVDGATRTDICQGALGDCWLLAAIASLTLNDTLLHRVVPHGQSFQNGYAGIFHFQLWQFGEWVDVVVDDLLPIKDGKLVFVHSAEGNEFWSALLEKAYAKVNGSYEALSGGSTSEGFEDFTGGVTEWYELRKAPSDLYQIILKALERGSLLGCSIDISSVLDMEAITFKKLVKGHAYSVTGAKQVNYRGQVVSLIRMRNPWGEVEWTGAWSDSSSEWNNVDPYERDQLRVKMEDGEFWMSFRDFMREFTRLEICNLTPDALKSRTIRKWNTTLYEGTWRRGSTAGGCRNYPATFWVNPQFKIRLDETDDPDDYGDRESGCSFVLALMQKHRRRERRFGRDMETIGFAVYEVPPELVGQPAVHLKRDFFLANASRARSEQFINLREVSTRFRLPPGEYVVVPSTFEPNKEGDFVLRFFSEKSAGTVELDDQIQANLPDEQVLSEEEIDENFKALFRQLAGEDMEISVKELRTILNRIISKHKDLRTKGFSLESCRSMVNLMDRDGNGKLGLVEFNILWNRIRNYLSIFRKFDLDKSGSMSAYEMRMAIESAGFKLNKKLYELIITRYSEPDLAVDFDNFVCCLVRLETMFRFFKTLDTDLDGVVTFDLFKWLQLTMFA
T2 sequence (P04632 1-268 partner): T1 sequence (P04632 1-268 partner)
Method in brief: as §1

Human Calpain 2/NS1 = molecular target: T3, Human Calpain 2/NS1 (Homo sapiens, UniProt P17655); assay: Calpain inhibition continuous fluorescence (FRET) assay, Human Calpain 2/NS1; type: biochemical; conditions: read-out: Human Calpain 2/NS1 IC50
T3 sequence (P17655 1-700): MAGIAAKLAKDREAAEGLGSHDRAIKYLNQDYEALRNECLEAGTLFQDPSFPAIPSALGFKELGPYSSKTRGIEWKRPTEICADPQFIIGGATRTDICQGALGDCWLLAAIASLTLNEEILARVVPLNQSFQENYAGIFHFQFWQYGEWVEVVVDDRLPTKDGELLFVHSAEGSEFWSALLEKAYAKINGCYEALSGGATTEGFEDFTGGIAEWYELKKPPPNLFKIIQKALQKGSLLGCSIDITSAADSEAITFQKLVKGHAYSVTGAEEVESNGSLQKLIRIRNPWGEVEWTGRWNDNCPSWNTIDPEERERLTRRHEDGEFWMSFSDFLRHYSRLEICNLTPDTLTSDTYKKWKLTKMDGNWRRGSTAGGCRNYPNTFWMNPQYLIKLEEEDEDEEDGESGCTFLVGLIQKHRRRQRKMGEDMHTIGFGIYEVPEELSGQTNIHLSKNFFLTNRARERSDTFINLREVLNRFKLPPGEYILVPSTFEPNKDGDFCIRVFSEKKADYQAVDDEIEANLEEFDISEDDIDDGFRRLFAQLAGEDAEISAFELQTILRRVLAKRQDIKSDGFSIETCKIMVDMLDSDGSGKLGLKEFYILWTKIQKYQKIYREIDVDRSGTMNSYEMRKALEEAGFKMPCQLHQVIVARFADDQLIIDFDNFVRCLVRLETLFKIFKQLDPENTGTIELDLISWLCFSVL
T3 sequence (P04632 1-268 partner): T1 sequence (P04632 1-268 partner)
Method in brief: as §1

[2] = test system: Calpain activity in SH-SY5Y cells (SBDP-150); assay: SH-SY5Y Spectrin western blot assay (SBDP-150 breakdown product, A23187-induced); type: cell-based; conditions: Homo sapiens; SH-SY5Y cells, A23187-induced SBDP-150, western blot; read-out: SH-SY5Y Spectrin IC50

SMILES	IC50 [1] [µM]	IC50 (Human Calpain 9/NS1) [µM]	IC50 (Human Calpain 1/NS1) [µM]	IC50 (Human Calpain 2/NS1) [µM]	IC50 [2] [µM]
Cn1cc(C(=O)NC(Cc2ccccc2)C(=O)C(N)=O)c(-c2cccc(F)c2C(F)(F)F)n1 (stereo not drawn) [Compound 512, N-(4-amino-3,4-dioxo-1-phenylbutan-2-yl)-3-(3-fluoro-2-(trifluoromethyl)phenyl)-1-methyl-1H-pyrazole-4-carboxamide]	< 10	3 to 10	3 to 10	3 to 10	> 25
Cn1cc(C(=O)NC(Cc2ccccc2)C(=O)C(N)=O)c(-c2ccccc2C(F)(F)F)n1 (stereo not drawn) [Compound 513, N-(4-amino-3,4-dioxo-1-phenylbutan-2-yl)-1-methyl-3-(2-(trifluoromethyl)phenyl)-1H-pyrazole-4-carboxamide]	< 10	3 to 10	3 to 10	3 to 10	> 25
Cn1cc(C(=O)NC(Cc2ccccc2)C(=O)C(N)=O)c(-c2cccc3c2OCO3)n1 (stereo not drawn) [Compound 514, N-(4-amino-3,4-dioxo-1-phenylbutan-2-yl)-3-(benzo[d][1,3]dioxol-4-yl)-1-methyl-1H-pyrazole-4-carboxamide]	< 10	< 3	< 3	< 3	> 25
COc1cncc(-c2nn(C)cc2C(=O)NC(Cc2ccccc2)C(=O)C(N)=O)c1 (stereo not drawn) [Compound 515, N-(4-amino-3,4-dioxo-1-phenylbutan-2-yl)-3-(5-methoxypyridin-3-yl)-1-methyl-1H-pyrazole-4-carboxamide]	> 25	< 3	< 3	< 3	> 25
Cc1cccc(-c2nn(C)cc2C(=O)NC(Cc2ccccc2)C(=O)C(N)=O)c1F (stereo not drawn) [Compound 517, N-(4-amino-3,4-dioxo-1-phenylbutan-2-yl)-3-(2-fluoro-3-methylphenyl)-1-methyl-1H-pyrazole-4-carboxamide]	10 to 25	< 3	< 3	< 3	10 to 25
Cn1cc(C(=O)NC(Cc2ccccc2)C(=O)C(N)=O)c(-c2cc(F)ccc2F)n1 (stereo not drawn) [Compound 518, N-(4-amino-3,4-dioxo-1-phenylbutan-2-yl)-3-(2,5-difluorophenyl)-1-methyl-1H-pyrazole-4-carboxamide]	< 10	< 3	< 3	< 3	10 to 25
Cn1cc(C(=O)NC(C=O)Cc2ccccc2)c(-c2ccccc2F)n1 (stereo not drawn) [Compound 520, 3-(2-Fluorophenyl)-1-methyl-N-(1-oxo-3-phenylpropan-2-yl)-1H-pyrazole-4-carboxamide]	10 to 25	< 3	< 3	< 3	> 25
Cc1ccncc1-c1nn(C(F)F)cc1C(=O)NC(Cc1ccccc1)C(=O)C(N)=O (stereo not drawn) [Compound 522, N-(4-amino-3,4-dioxo-1-phenylbutan-2-yl)-1-(difluoromethyl)-3-(4-methylpyridin-3-yl)-1H-pyrazole-4-carboxamide]	< 10	< 3	< 3	< 3	> 25
Cc1ccc(C)c(-c2nn(C(F)F)cc2C(=O)NC(Cc2ccccc2)C(=O)C(N)=O)c1 (stereo not drawn) [Compound 524, N-(4-amino-3,4-dioxo-1-phenylbutan-2-yl)-1-(difluoromethyl)-3-(2,5-dimethylphenyl)-1H-pyrazole-4-carboxamide]	< 10	< 3	< 3	< 3	10 to 25
NC(=O)C(=O)C(Cc1ccccc1)NC(=O)c1cn(C2CCCC2)nc1-c1ccccc1 (stereo not drawn) [Compound 525, N-(4-amino-3,4-dioxo-1-phenylbutan-2-yl)-1-cyclopentyl-3-phenyl-1H-pyrazole-4-carboxamide]	< 10	< 3	< 3	< 3	> 25
NC(=O)C(=O)C(Cc1ccccc1)NC(=O)c1cn(C2CCC2)nc1-c1ccccc1 (stereo not drawn) [Compound 526, N-(4-amino-3,4-dioxo-1-phenylbutan-2-yl)-1-cyclobutyl-3-phenyl-1H-pyrazole-4-carboxamide]	< 10	< 3	< 3	< 3	> 25
NC(=O)C(=O)C(Cc1ccccc1)NC(=O)c1cn(-c2ccccc2F)nc1-c1ccccc1 (stereo not drawn) [Compound 527, N-(4-amino-3,4-dioxo-1-phenylbutan-2-yl)-1-(2-fluorophenyl)-3-phenyl-1H-pyrazole-4-carb oxamide]	< 10	< 3	< 3	< 3	> 25
NC(=O)C(=O)C(Cc1ccccc1)NC(=O)c1cn(-c2ccc(F)cc2)nc1-c1ccccc1 (stereo not drawn) [Compound 529, N-(4-amino-3,4-dioxo-1-phenylbutan-2-yl)-1-(4-fluorophenyl)-3-phenyl-1H-pyrazole-4-carb oxamide]	< 10	< 3	< 3	< 3	> 25
Cn1cc(C(=O)NC(Cc2ccccc2)C(=O)C(N)=O)c(-n2ncc3ccccc32)n1 (stereo not drawn) [Compound 530, N-(4-amino-3,4-dioxo-1-phenylbutan-2-yl)-3-(1H-indazol-1-yl)-1-methyl-1H-pyrazole-4-carboxamide]	> 25	< 3	< 3	< 3	> 25
NC(=O)C(=O)C(Cc1ccccc1)NC(=O)c1cnoc1-c1ccccc1 (stereo not drawn) [Compound 531, N-(4-amino-3,4-dioxo-1-phenylbutan-2-yl)-5-phenylisoxazole-4-carboxamide]	> 25	< 3	< 3	< 3	10 to 25
